Test results as given in patent publication US20140113898A1, “BISARYLSULFONE AND DIALKYLARYLSULFONE COMPOUNDS AS CALCIUM CHANNEL BLOCKERS” (Zalicus Pharmaceuticals Ltd., priority 2010, published 2014).
pIC50: −log10 of the molar value. Read-outs that look alike come from different tables or passages of the source.

Tests used:
Type in all cases: cell-based
CaV3.2 = biological target: T1, CaV3.2 (Homo sapiens, UniProt O95180); test: High-throughput CaV3.2/Kir2.3 T-type FLIPR fluorescent assay; conditions: Fluo-4 FLIPR, closed or inactivated state not stated
T1 construct: expressed in transfected cells; host or cells: unnamed doxycycline-inducible cell line
Outline: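 Doxycycline-induced cells loaded with Fluo-4, preincubated 20 min at 29°C with compound in 2 mM KCl (closed-state) or 7.6 mM KCl (inactivated-state) buffer, pH 7.4. Calcium entry triggered by 12 mM or 14.5 mM KCl respectively; fluorescence read 3 min by FLIPR, IC50 from logistic fit.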

CaV3.1 = biological target: T2, CaV3.1 (Homo sapiens, UniProt O43497); test: High-throughput CaV3.1 T-type FLIPR fluorescent assay; conditions: Fluo-4 FLIPR
T2 construct: expressed in transfected cells; host or cells: unnamed doxycycline-inducible cell line
Outline: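 Doxycycline-induced CaV3.1 cells were loaded with Fluo-4 at 29 °C and pre-incubated with compound for 20 min at 29 °C in low-Ca2+ buffer (0.001 mM CaCl2, pH 7.2). Calcium entry was triggered by buffer containing 6 mM CaCl2, and Fluo-4 fluorescence was recorded on FLIPR for 3 min. IC50 came from logistic fits.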

CaV2.2 = biological target: T3, CaV2.2 (Homo sapiens, UniProt Q00975); test: High-throughput CaV2.2/Kir2.3 FLIPR fluorescent assay; conditions: Fluo-4 FLIPR, closed or inactivated state not stated, read-out: FLIPR data CaV2.2
T3 construct: expressed in transfected cells; host or cells: unnamed doxycycline-inducible cell line
Outline: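 IC50 was derived by logistic fitting of the FLIPR Fluo-4 signal recorded over 3 min after a 130 mM KCl stimulus. Before stimulation, cells (channel expression induced with doxycycline, 29 °C on assay day) were kept in pH 7.4 buffer with 2 mM KCl for the closed-state format or 12.5 mM KCl for the inactivated-state format.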

T2 sequence (O43497 whole entry): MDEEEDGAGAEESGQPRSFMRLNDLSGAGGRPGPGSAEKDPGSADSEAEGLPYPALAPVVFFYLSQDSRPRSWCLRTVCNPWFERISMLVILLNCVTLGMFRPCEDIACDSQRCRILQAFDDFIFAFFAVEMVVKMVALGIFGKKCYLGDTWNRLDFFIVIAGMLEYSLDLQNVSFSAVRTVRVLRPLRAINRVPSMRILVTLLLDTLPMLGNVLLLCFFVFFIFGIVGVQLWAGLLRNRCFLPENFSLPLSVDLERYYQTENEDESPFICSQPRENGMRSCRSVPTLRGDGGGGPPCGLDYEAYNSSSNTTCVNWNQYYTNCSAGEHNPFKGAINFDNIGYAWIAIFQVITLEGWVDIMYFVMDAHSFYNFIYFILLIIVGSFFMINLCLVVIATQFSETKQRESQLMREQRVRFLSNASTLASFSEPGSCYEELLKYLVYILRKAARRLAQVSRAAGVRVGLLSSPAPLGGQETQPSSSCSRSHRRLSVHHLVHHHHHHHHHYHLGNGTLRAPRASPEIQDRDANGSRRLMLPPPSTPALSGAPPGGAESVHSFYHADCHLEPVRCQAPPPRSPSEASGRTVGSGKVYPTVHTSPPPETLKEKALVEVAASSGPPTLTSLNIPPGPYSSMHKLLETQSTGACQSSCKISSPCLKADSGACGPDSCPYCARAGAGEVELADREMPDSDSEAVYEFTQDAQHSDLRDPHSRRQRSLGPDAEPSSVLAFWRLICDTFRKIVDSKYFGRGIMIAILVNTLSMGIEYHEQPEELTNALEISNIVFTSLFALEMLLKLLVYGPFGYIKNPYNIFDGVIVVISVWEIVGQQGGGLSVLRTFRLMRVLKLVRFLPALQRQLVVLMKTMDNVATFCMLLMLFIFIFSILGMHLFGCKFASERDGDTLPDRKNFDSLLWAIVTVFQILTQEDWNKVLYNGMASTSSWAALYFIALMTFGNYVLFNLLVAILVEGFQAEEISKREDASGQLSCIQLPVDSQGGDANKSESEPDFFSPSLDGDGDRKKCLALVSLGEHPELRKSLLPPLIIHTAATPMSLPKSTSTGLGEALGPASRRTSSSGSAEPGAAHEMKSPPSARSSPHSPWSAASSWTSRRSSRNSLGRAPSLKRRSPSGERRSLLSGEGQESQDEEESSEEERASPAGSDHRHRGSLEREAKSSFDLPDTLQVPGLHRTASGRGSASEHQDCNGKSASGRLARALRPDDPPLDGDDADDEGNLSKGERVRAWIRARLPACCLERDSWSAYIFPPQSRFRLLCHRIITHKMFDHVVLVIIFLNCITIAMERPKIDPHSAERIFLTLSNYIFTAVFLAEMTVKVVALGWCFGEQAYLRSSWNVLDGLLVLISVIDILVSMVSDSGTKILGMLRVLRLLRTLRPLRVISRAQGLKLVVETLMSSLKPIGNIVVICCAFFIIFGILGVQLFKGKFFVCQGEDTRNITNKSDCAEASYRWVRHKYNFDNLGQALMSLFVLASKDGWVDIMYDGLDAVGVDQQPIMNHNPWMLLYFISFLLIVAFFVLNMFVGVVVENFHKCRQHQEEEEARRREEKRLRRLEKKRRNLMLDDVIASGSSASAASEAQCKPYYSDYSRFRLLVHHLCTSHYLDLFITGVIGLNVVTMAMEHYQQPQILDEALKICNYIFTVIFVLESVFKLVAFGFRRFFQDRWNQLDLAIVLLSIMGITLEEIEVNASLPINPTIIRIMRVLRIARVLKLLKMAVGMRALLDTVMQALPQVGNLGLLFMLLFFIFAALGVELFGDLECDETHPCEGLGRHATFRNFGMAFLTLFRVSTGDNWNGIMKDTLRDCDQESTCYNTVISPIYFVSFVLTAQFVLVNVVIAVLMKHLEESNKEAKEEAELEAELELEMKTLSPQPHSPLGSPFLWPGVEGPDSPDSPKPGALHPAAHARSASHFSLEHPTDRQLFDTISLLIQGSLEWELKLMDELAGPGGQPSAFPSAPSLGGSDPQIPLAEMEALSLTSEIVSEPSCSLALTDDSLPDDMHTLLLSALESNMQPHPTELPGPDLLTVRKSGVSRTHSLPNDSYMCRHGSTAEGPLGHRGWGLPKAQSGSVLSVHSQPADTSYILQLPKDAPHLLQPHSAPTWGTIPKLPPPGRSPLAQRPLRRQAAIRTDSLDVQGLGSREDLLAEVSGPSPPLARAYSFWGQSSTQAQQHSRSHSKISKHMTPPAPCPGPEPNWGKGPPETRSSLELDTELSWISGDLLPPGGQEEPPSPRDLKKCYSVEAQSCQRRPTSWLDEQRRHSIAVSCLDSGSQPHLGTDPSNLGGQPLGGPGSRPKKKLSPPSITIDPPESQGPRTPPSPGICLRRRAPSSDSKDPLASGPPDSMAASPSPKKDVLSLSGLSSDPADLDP
T1 sequence (O95180 whole entry): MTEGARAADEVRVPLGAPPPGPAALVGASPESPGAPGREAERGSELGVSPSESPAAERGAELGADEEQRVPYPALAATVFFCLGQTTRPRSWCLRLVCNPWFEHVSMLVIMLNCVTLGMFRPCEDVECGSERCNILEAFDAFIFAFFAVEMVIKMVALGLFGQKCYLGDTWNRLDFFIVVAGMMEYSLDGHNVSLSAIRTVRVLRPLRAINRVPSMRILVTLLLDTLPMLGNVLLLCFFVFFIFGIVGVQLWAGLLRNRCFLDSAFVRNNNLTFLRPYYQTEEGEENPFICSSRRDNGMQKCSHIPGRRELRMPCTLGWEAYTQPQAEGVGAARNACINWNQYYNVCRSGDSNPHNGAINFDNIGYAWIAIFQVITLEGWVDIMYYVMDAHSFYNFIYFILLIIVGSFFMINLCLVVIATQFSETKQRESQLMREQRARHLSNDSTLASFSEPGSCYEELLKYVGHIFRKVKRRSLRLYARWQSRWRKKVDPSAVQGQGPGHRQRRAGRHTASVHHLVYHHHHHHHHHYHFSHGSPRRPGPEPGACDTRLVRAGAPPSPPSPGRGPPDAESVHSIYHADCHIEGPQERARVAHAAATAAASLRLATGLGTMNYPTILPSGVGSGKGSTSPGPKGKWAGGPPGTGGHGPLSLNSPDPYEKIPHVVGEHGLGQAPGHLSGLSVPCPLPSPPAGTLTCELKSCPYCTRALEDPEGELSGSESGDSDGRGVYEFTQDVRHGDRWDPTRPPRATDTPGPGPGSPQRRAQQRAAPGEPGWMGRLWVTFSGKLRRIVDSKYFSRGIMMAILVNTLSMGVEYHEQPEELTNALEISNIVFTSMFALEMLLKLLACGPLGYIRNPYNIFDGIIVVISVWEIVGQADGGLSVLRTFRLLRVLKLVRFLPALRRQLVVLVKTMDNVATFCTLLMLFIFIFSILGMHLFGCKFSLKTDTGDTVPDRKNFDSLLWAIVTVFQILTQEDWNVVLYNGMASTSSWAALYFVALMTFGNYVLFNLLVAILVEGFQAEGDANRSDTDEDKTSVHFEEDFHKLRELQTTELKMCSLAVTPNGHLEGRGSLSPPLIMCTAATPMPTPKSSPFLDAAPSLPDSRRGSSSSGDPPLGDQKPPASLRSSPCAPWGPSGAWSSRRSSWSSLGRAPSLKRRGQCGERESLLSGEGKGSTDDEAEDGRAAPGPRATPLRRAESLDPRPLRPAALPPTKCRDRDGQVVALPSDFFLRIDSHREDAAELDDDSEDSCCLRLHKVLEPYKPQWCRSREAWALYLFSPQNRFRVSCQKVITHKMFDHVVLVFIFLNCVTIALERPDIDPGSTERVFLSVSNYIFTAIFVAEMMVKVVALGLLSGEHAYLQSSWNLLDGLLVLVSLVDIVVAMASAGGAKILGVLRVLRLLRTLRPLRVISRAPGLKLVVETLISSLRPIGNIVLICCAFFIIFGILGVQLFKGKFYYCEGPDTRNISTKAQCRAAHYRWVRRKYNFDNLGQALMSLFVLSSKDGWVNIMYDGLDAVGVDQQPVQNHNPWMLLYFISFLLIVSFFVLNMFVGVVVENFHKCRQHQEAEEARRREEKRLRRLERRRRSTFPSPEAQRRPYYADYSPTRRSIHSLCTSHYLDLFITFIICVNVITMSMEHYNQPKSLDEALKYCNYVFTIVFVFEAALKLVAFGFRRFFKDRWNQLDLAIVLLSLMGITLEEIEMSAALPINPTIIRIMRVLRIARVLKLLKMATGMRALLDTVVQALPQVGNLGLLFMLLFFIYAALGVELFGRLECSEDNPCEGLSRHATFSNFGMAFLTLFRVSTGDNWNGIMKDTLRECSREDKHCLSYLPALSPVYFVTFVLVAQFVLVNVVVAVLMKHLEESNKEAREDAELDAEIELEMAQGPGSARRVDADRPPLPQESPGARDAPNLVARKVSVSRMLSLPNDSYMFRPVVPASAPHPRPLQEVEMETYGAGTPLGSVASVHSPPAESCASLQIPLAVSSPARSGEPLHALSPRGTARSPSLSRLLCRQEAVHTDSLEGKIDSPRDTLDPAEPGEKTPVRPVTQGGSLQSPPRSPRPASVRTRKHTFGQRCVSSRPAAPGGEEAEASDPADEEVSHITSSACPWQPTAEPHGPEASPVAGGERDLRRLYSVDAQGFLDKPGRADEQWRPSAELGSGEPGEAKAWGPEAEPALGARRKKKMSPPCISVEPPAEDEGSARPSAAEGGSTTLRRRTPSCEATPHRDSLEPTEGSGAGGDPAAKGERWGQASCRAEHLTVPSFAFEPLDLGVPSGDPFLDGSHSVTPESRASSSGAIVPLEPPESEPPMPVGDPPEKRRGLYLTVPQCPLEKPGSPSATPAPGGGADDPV

pIC50 (CaV3.2; Table 4) | pIC50 (CaV3.1; Table 4) | pIC50 (CaV2.2; Table 4) | pIC50 (CaV3.2; Table 5) | pIC50 (CaV3.1; Table 5) | pIC50 (CaV2.2; Table 5) | SMILES
5.76 | 5.80 | 6.01 | – | – | – | O=C(NCc1ccc(S(=O)(=O)c2cccc(C(F)(F)F)c2)cn1)c1cc(F)cc(Cl)c1 [Compound 89, 3-chloro-5-fluoro-N-((5-((3-(trifluoromethyl)phenyl)sulfonyl)pyridin-2-yl)methyl)benzamide]
– | – | – | 5.92 | 5.85 | 6.96 | CC(C)(C(=O)NCc1cccc(S(=O)(=O)c2cccc(C(F)(F)F)c2)c1)S(=O)(=O)c1cccc(C(F)(F)F)c1 [Compound 226, 2-methyl-2-((3-(trifluoromethyl)phenyl)sulfonyl)-N-(3-((3-(trifluoromethyl)phenyl)sulfonyl)benzyl)propanamide]
5.89 | 5.73 | 6.08 | – | – | – | O=C(NCc1ccc(S(=O)(=O)c2cccc(C(F)(F)F)c2)cn1)c1ccc(C(F)(F)F)cn1 [Compound 91, 5-(trifluoromethyl)-N-((5-((3-(trifluoromethyl)phenyl)sulfonyl)pyridin-2-yl)methyl)picolinamide]
– | – | – | 5.44 | 5.39 | 5.92 | CC(C)(C(=O)N1CCN(c2cccc(C(F)(F)F)c2)CC1)S(=O)(=O)c1cccc(C(F)(F)F)c1 [Compound 132, 2-methyl-1-(4-(3-(trifluoromethyl)phenyl)piperazin-1-yl)-2-((3-(trifluoromethyl)phenyl)sulfonyl)propan-1-one]
5.90 | 5.77 | 6.77 | – | – | – | CC(C)(C(=O)NCc1ccc(S(=O)(=O)c2cccc(C(F)(F)F)c2)cn1)S(=O)(=O)c1cccc(C(F)(F)F)c1 [Compound 87, 2-methyl-2-((3-(trifluoromethyl)phenyl)sulfonyl)-N-((5-((3-(trifluoromethyl)phenyl)sulfonyl)pyridin-2-yl)methyl)propanamide]
– | – | – | 5.99 | 5.75 | 6.60 | CC(C)(CCNC(=O)C(C)(C)S(=O)(=O)c1cccc(C(F)(F)F)c1)S(=O)(=O)c1cccc(C(F)(F)F)c1 [Compound 150, 2-methyl-N-(3-methyl-3-((3-(trifluoromethyl)phenyl)sulfonyl)butyl)-2-((3-(trifluoromethyl)phenyl)sulfonyl)propanamide]

Second part, the compound before the results:

SMILES | pIC50 (CaV3.2; Table 4) | pIC50 (CaV3.1; Table 4) | pIC50 (CaV2.2; Table 4) | pIC50 (CaV3.2; Table 5) | pIC50 (CaV3.1; Table 5) | pIC50 (CaV2.2; Table 5)
CC(C)S(=O)(=O)c1cc(C(F)(F)F)cnc1C(=O)NCc1ccc(S(=O)(=O)c2cccc(C(F)(F)F)c2)cc1 [Compound 33, 3-(isopropylsulfonyl)-5-(trifluoromethyl)-N-(4-((3-(trifluoromethyl)phenyl)sulfonyl)benzyl)picolinamide] | 6.00 | 6.04 | 7.00 | – | – | –
CS(=O)(=O)c1cc(C(F)(F)F)ccc1C(=O)NCc1cccc(S(=O)(=O)c2cccc(C(F)(F)F)c2)c1 [Compound 28, 2-(methylsulfonyl)-4-(trifluoromethyl)-N-(3-((3-(trifluoromethyl)phenyl)sulfonyl)benzyl)benzamide] | 6.14 | 5.82 | 6.72 | – | – | –
O=C(NCc1ccc(S(=O)(=O)c2cccc(C(F)(F)F)c2)cc1)c1ccnc(C(F)(F)F)c1 [Compound 16, 2-(trifluoromethyl)-N-(4-((3-(trifluoromethyl)phenyl)sulfonyl)benzyl)isonicotinamide] | 6.19 | 5.84 | 6.03 | – | – | –
O=C(NCc1ccccc1S(=O)(=O)c1cccc(C(F)(F)F)c1)c1ccc(Cl)c(F)c1 [Compound 36, 4-chloro-3-fluoro-N-(2-((3-(trifluoromethyl)phenyl)sulfonyl)benzyl)benzamide] | 6.11 | 6.39 | 6.08 | – | – | –
O=C(NCc1ccc(S(=O)(=O)c2cccc(C(F)(F)F)c2)cc1)c1ccc(Cl)c(OC(F)(F)F)c1 [Compound 15, 4-chloro-3-(trifluoromethoxy)-N-(4-((3-(trifluoromethyl)phenyl)sulfonyl)benzyl)benzamide] | 6.31 | 5.86 | 6.13 | – | – | –
